Measured values from patent publication US11980674B2, “Imaging of metastatic or recurrent cancer” (Blue Earth Diagnostics Limited, priority 2020, dated 2024).

Assays:
[1] = system: known prostate carcinoma recurrence; assay: PET time activity curves (FIG. 3); assay type: in vivo, human; conditions: for time at which plateau was reached: remained constant throughout the imaging period
Procedure: Regions in marrow (ilium), muscle (gluteus), and bladder reached a plateau at 4.5 minutes that remained constant throughout the imaging period.

[2] = human, in vivo
Procedure: FIGS. 1a and 1b show accumulation of FACBC in the Virchow's node when the FACBC is injected into the left arm.
In some embodiments, the right arm may be preferred as stasis in the axillary vein upon injection in the left arm may be misinterpreted as a metastatic lymph node called Virchow's node, which is located in the left supraclavicular fossa (the area above the left clavicle, or collar bone). For example, FIGS. 1a and 1b show accumulation of FACBC in the Virchow's node when the FACBC is injected into the left arm.

- time at which plateau was reached ([1]; bladder): 4.5 min
- time of maximum uptake ([1]; known prostate carcinoma recurrence): 4.5 min
- plateau of uptake lasting to ([1]; known prostate carcinoma recurrence, after maximum at 4.5 minutes): 30 min
- gradual clearance ([1]; known prostate carcinoma recurrence, after plateau, out to 60 minutes): 9 %/min
- time at which plateau was reached ([1]; marrow (ilium)): 4.5 min
- time at which plateau was reached ([1]; muscle (gluteus)): 4.5 min
- standardized uptake value (SUV) [2]: > 200
SMILES: N[C@]1(C(=O)O)C[C@@H](F)C1 [fluciclovine, anti-1-amino-3-^18F-fluorocyclobutane-1-carboxylic acid]
